# Data reported in ChEMBL document CHEMBL1138436, “Biological activity and chemistry of taxoids from the Japanese yew, Taxus cuspidata” (J Nat Prod, 2004).
# Experiments:
# Format in all cases: functional
# MKN-28 = assay: Growth inhibition of human MKN28 cells
# MCF7 = assay: Growth inhibition of human MCF7 cells
# HCC 2998 = assay: Growth inhibition of human HCC2998 cells
# KM12 = assay: Growth inhibition of human KM12 cells
# DMS-114 = assay: Growth inhibition of human DMS114 cells
# SF-268 = assay: Growth inhibition of human SF268 cells
# HCT-15 = assay: Growth inhibition of human HCT15 cells
# [1] = Growth inhibition of human MKN1 cells
# SNB-78 = assay: Growth inhibition of human SNB78 cells
# OVCAR-3 = assay: Growth inhibition of human OVCAR-3 cells
# NCI-H522 = assay: Growth inhibition of human NCI-H522 cells
# A549 = assay: Growth inhibition of human A549 cells
# DU-145 = assay: Growth inhibition of human DU145 cells
# OVCAR-4 = assay: Growth inhibition of human OVCAR4 cells
# MKN-7 = assay: Growth inhibition of human MKN7 cells
# OVCAR-8 = assay: Growth inhibition of human OVCAR8 cells
# NCI-H23 = assay: Growth inhibition of human NCI-H23 cells
# OVCAR-5 = assay: Growth inhibition of human OVCAR5 cells
# HT-29 = assay: Growth inhibition of human HT-29 cells
# SK-OV-3 = assay: Growth inhibition of human SKOV3 cells
# ACHN = assay: Growth inhibition of human ACHN cells
# [2] = Growth inhibition of human RXF631L cells
# NCI-H226 = assay: Growth inhibition of human NCI-H226 cells
# SF-539 = assay: Growth inhibition of human SF539 cells
# MKN-45 = assay: Growth inhibition of human MKN45 cells
# LOX IMVI = assay: Growth inhibition of human LOXIMVI cells
# MDA-MB-231 = assay: Growth inhibition of human MDA-MB-231 cells
# SF-295 = assay: Growth inhibition of human SF295 cells
# [3] = read-out: LC50 (the source's name)
# [4] = read-out: pLC50 (the source's name) (converted)
smiles,measurement,setting,value
CC(=O)O[C@H]1C[C@H]2OC[C@@]2(OC(C)=O)[C@H]2[C@H](OC(=O)c3ccccc3)[C@]3(O)C[C@H](O)C(C)=C([C@@H](O)[C@H](O)[C@]12C)C3(C)C [TAXUSPINE E],GI50,MKN-28; read-out: GI50,31 µM
same,CC50,MKN-28; [3],> 100 µM
same,TGI,MKN-28; read-out: TGI,> 100 µM
same,GI50,MKN-28; read-out: pGI50 (converted),30.9 µM
same,CC50,MKN-28; [4],100 µM
same,TGI,MKN-28; read-out: pTGI (converted),100 µM
same,GI50,MCF7; read-out: GI50,24 µM
same,CC50,MCF7; [3],> 100 µM
same,TGI,MCF7; read-out: TGI,93 µM
same,GI50,MCF7; read-out: pGI50 (converted),24 µM
same,CC50,MCF7; [4],100 µM
same,TGI,MCF7; read-out: pTGI (converted),93.3 µM
same,TGI,HCC 2998,> 100 µM
same,GI50,HCC 2998; read-out: GI50,27 µM
same,CC50,HCC 2998; [3],> 100 µM
same,GI50,HCC 2998; read-out: pGI50 (converted),27.5 µM
same,GI50,KM12; read-out: GI50,42 µM
same,CC50,KM12; [3],100 µM
same,TGI,KM12; read-out: TGI,> 100 µM
same,GI50,KM12; read-out: pGI50 (converted),41.7 µM
same,CC50,KM12; [4],100 µM
same,TGI,KM12; read-out: pTGI (converted),100 µM
same,GI50,DMS-114; read-out: GI50,10 µM
same,CC50,DMS-114; [3],> 100 µM
same,TGI,DMS-114; read-out: TGI,57 µM
same,GI50,DMS-114; read-out: pGI50 (converted),10 µM
same,TGI,DMS-114; read-out: pTGI (converted),57.5 µM
same,TGI,SF-268,> 100 µM
same,GI50,SF-268; read-out: GI50,74 µM
same,CC50,SF-268; [3],> 100 µM
same,GI50,SF-268; read-out: pGI50 (converted),74.1 µM
same,CC50,SF-268; [4],100 µM
same,GI50,HCT-15; read-out: GI50,32 µM
same,CC50,HCT-15; [3],> 100 µM
same,TGI,HCT-15; read-out: TGI,> 100 µM
same,GI50,HCT-15; read-out: pGI50 (converted),32.4 µM
same,CC50,HCT-15; [4],100 µM
same,TGI,HCT-15; read-out: pTGI (converted),100 µM
same,GI50,"[1]; MKN-1, read-out: GI50",49 µM
same,CC50,"[1]; MKN-1, read-out: LC50 (the source's name)",> 100 µM
same,TGI,"[1]; MKN-1, read-out: TGI",> 100 µM
same,GI50,"[1]; MKN-1, read-out: pGI50 (converted)",49 µM
same,CC50,"[1]; MKN-1, read-out: pLC50 (the source's name) (converted)",100 µM
same,TGI,"[1]; MKN-1, read-out: pTGI (converted)",100 µM
same,GI50,SNB-78; read-out: GI50,50 µM
same,CC50,SNB-78; [3],> 100 µM
same,TGI,SNB-78; read-out: TGI,> 100 µM
same,GI50,SNB-78; read-out: pGI50 (converted),50.1 µM
same,CC50,SNB-78; [4],100 µM
same,TGI,SNB-78; read-out: pTGI (converted),100 µM
same,GI50,OVCAR-3; read-out: GI50,21 µM
same,CC50,OVCAR-3; [3],> 100 µM
same,TGI,OVCAR-3; read-out: TGI,99 µM
same,GI50,OVCAR-3; read-out: pGI50 (converted),20.4 µM
same,CC50,OVCAR-3; [4],100 µM
same,TGI,OVCAR-3; read-out: pTGI (converted),100 µM
same,GI50,NCI-H522; read-out: GI50,15 µM
same,CC50,NCI-H522; [3],> 100 µM
same,TGI,NCI-H522; read-out: TGI,49 µM
same,GI50,NCI-H522; read-out: pGI50 (converted),15.1 µM
same,TGI,NCI-H522; read-out: pTGI (converted),49 µM
same,GI50,A549; read-out: GI50,30 µM
same,CC50,A549; [3],100 µM
same,TGI,A549; read-out: TGI,> 100 µM
same,GI50,A549; read-out: pGI50 (converted),30.2 µM
same,CC50,A549; [4],100 µM
same,TGI,A549; read-out: pTGI (converted),100 µM
same,TGI,DU-145,> 100 µM
same,GI50,DU-145; read-out: GI50,33 µM
same,CC50,DU-145; [3],> 100 µM
same,GI50,DU-145; read-out: pGI50 (converted),32.4 µM
same,CC50,DU-145; [4],100 µM
same,GI50,OVCAR-4; read-out: GI50,21 µM
same,CC50,OVCAR-4; [3],> 100 µM
same,TGI,OVCAR-4; read-out: TGI,> 100 µM
same,GI50,OVCAR-4; read-out: pGI50 (converted),21.4 µM
same,CC50,OVCAR-4; [4],100 µM
same,TGI,OVCAR-4; read-out: pTGI (converted),100 µM
same,TGI,MKN-7,93 µM
same,GI50,MKN-7; read-out: GI50,18 µM
same,CC50,MKN-7; [3],> 100 µM
same,GI50,MKN-7; read-out: pGI50 (converted),18.2 µM
same,GI50,OVCAR-8; read-out: GI50,37 µM
same,CC50,OVCAR-8; [3],> 100 µM
same,TGI,OVCAR-8; read-out: TGI,100 µM
same,GI50,OVCAR-8; read-out: pGI50 (converted),37.2 µM
same,CC50,OVCAR-8; [4],100 µM
same,TGI,OVCAR-8; read-out: pTGI (converted),100 µM
same,GI50,NCI-H23; read-out: GI50,23 µM
same,CC50,NCI-H23; [3],100 µM
same,TGI,NCI-H23; read-out: TGI,69 µM
same,GI50,NCI-H23; read-out: pGI50 (converted),22.9 µM
same,CC50,NCI-H23; [4],100 µM
same,TGI,NCI-H23; read-out: pTGI (converted),69.2 µM
same,GI50,OVCAR-5; read-out: GI50,48 µM
same,CC50,OVCAR-5; [3],> 100 µM
same,TGI,OVCAR-5; read-out: TGI,> 100 µM
same,GI50,OVCAR-5; read-out: pGI50 (converted),47.9 µM
same,CC50,OVCAR-5; [4],100 µM
same,TGI,OVCAR-5; read-out: pTGI (converted),100 µM
same,GI50,HT-29; read-out: GI50,28 µM
same,CC50,HT-29; [3],> 100 µM
same,TGI,HT-29; read-out: TGI,> 100 µM
same,GI50,HT-29; read-out: pGI50 (converted),27.5 µM
same,TGI,HT-29; read-out: pTGI (converted),100 µM
same,GI50,SK-OV-3; read-out: GI50,68 µM
same,CC50,SK-OV-3; [3],> 100 µM
same,TGI,SK-OV-3; read-out: TGI,100 µM
same,GI50,SK-OV-3; read-out: pGI50 (converted),69.2 µM
same,CC50,SK-OV-3; [4],100 µM
same,TGI,SK-OV-3; read-out: pTGI (converted),100 µM
same,GI50,ACHN; read-out: GI50,28 µM
same,CC50,ACHN; [3],> 100 µM
same,TGI,ACHN; read-out: TGI,> 100 µM
same,GI50,ACHN; read-out: pGI50 (converted),28.2 µM
same,TGI,ACHN; read-out: pTGI (converted),100 µM
same,TGI,[2]; RXF 631,> 100 µM
same,GI50,"[2]; RXF 631, read-out: GI50",25 µM
same,CC50,"[2]; RXF 631, read-out: LC50 (the source's name)",5100 µM
same,GI50,"[2]; RXF 631, read-out: pGI50 (converted)",24.5 µM
same,CC50,"[2]; RXF 631, read-out: pLC50 (the source's name) (converted)",100 µM
same,GI50,NCI-H226; read-out: GI50,32 µM
same,CC50,NCI-H226; [3],> 100 µM
same,TGI,NCI-H226; read-out: TGI,> 100 µM
same,GI50,NCI-H226; read-out: pGI50 (converted),32.4 µM
same,CC50,NCI-H226; [4],100 µM
same,TGI,NCI-H226; read-out: pTGI (converted),100 µM
same,GI50,SF-539; read-out: GI50,45 µM
same,CC50,SF-539; [3],> 100 µM
same,TGI,SF-539; read-out: TGI,> 100 µM
same,GI50,SF-539; read-out: pGI50 (converted),44.7 µM
same,CC50,SF-539; [4],100 µM
same,TGI,SF-539; read-out: pTGI (converted),100 µM
same,GI50,MKN-45; read-out: GI50,27 µM
same,CC50,MKN-45; [3],> 100 µM
same,TGI,MKN-45; read-out: TGI,> 100 µM
same,GI50,MKN-45; read-out: pGI50 (converted),26.9 µM
same,CC50,MKN-45; [4],100 µM
same,TGI,MKN-45; read-out: pTGI (converted),100 µM
same,GI50,LOX IMVI; read-out: GI50,35 µM
same,CC50,LOX IMVI; [3],> 100 µM
same,TGI,LOX IMVI; read-out: TGI,> 100 µM
same,GI50,LOX IMVI; read-out: pGI50 (converted),34.7 µM
same,TGI,LOX IMVI; read-out: pTGI (converted),100 µM
same,GI50,MDA-MB-231; read-out: GI50,18 µM
same,CC50,MDA-MB-231; [3],> 100 µM
same,GI50,MDA-MB-231; read-out: pGI50 (converted),18.2 µM
same,CC50,MDA-MB-231; [4],100 µM
same,TGI,MDA-MB-231; read-out: pTGI (converted),100 µM
same,GI50,SF-295; read-out: GI50,21 µM
same,CC50,SF-295; [3],> 100 µM
same,TGI,SF-295; read-out: TGI,> 100 µM
same,GI50,SF-295; read-out: pGI50 (converted),21.4 µM
same,TGI,SF-295; read-out: pTGI (converted),100 µM
